≈ marks a conversion by molar mass, not a printed value.

The conditions of the series: buffer; pH 7.4; 200.0 µM.
The term kinetic solubility denotes solubility judged after dilution from a stock solution rather than from solid. For `Cc1cccc(OCCN2CCOCC2)c1C`, the kinetic solubility came to 24.4 µg/mL (≈ 104 µM).

`CC(OC(=O)c1ccc(O)cc1)C(=O)Nc1ccc(Oc2ccccc2)cc1` (stereo unspecified) had a solubility (kinetic) of 5 µg/mL (≈ 13.2 µM).

As for `O=C(Nc1ccc(S(=O)(=O)N2CCCCC2)cc1)C1CC1`, the kinetic solubility is greater than 46.3 µg/mL.

Turning to `CCN1CCN(c2nc3c(c(=O)[nH]2)CCC3)CC1`, the kinetic solubility came out at 36.1 µg/mL (≈ 145 µM).

As for `O=C(COC(=O)c1cccc(O)c1)NCc1ccc2c(c1)OCO2`, the kinetic solubility was greater than 49.4 µg/mL.

`Cn1cccc1C(=O)OCc1nc2ccccc2c(=O)[nH]1` displayed a kinetic solubility of 29.6 µg/mL (≈ 104 µM).

Compound `O=[N+]([O-])c1ccc(Cl)c(C[n+]2cccc3ccccc32)c1.[Br-]` yielded a kinetic solubility of 56.9 µg/mL.

In turn, `CCOc1ccc(C(=O)C(C)OC(=O)c2cnc(C)cn2)cc1` (stereo unspecified) registered a kinetic solubility greater than 47.2 µg/mL.

Take `CC1CCC2(CC1)NC(=O)N(CC(=O)N1CCOCC1)C2=O` (stereo unspecified): the solubility (kinetic) is greater than 46.4 µg/mL.

For the compound `COc1ccc(OC)c(CN2CCCC(C(=O)c3sccc3C)C2)c1` (stereo unspecified), the solubility (kinetic) is greater than 53.9 µg/mL.

As to `Cc1sc2c(c1C)C(=O)/C(=C\Nc1ccncc1)S(=O)(=O)N2C`, the kinetic solubility worked out at 1.9 µg/mL (≈ 5.44 µM).

Compound `CC(C)(C)/C(COc1ccccc1[N+](=O)[O-])=N/O` yielded a kinetic solubility of 20.6 µg/mL (≈ 81.7 µM).

Regarding `Cl.c1cncc(CNC2CCCCC2)c1`, the solubility (kinetic) was greater than 34 µg/mL.

`O=C(NCCNC1CCCCC1)c1ccco1` gave a solubility (kinetic) of 26.2 µg/mL (≈ 111 µM).

`CCOC(=O)C1=C(C)N(C)C(=O)NC1c1ccc2c(c1)OCO2` (stereo unspecified) registered a kinetic solubility greater than 47.7 µg/mL.

The compound `NC(=O)C1CCN(C(=O)c2cc(-c3ccccc3Cl)nc3ccccc23)CC1` yielded a solubility (kinetic) greater than 59.1 µg/mL.

Regarding `CCc1ccc(NC(=O)COC(=O)c2cccs2)cc1`, the solubility (kinetic) was 2.8 µg/mL (≈ 9.68 µM).

The compound `CC(C)(C)SCCNC(=O)CN1C(=O)c2cccc3cccc1c23` came in with a kinetic solubility of 2.8 µg/mL (≈ 8.18 µM).

`O=C(NC12CC3CC(CC(C3)C1)C2)c1cncc(Br)c1` showed a solubility (kinetic) of 8.5 µg/mL (≈ 25.4 µM).

For `Nc1ccc(C(=O)OCC(=O)Nc2cccc(S(=O)(=O)NC3=NCCCCC3)c2)cc1[N+](=O)[O-]`, the solubility (kinetic) stood at 4.7 µg/mL (≈ 9.6 µM).

The compound `Cc1ccc(C(=O)Nc2ccc(NC(=O)c3ccco3)c(C)c2)cc1` came in with a kinetic solubility of 2.8 µg/mL (≈ 8.37 µM).

Compound `Cc1ccc(-c2csc3ncn(CC(=O)O)c(=O)c23)cc1C` gave a kinetic solubility greater than 47.2 µg/mL.

With `COc1cc(NC(=O)COC(=O)c2ccc([N+](=O)[O-])s2)cc(OC)c1OC`, the kinetic solubility is 10.4 µg/mL (≈ 26.2 µM).

For `c1ccc(-c2ccccc2OCCN2CCCC2)cc1`, the solubility (kinetic) stood at 25 µg/mL (≈ 93.5 µM).

`CSc1ccccc1NC(=O)Nc1cccc2ccccc12` gave a kinetic solubility of less than 0.3 µg/mL.

The compound `Cc1oc(C(C)(C)C)cc1C(=O)Nc1ccc(N2CCOCC2)cc1` came in with a solubility (kinetic) of 4.3 µg/mL (≈ 12.6 µM).

For the compound `Cc1onc(-c2ccccc2)c1C(=O)NCC(=O)Nc1cc(Cl)ccc1Cl`, the kinetic solubility was 9.4 µg/mL (≈ 23.3 µM).

`Cc1ccccc1C(=O)NCCCNC(=O)c1ccccn1` gave a solubility (kinetic) greater than 44.6 µg/mL.

`O=C(Nc1ccccc1N1CCCCC1)c1cccc([N+](=O)[O-])c1` returned a kinetic solubility of 0.7 µg/mL (≈ 2.15 µM).

In turn, `Cc1[nH]c2ccccc2c1-c1csc(NC(=O)CSCCO)n1` yielded a solubility (kinetic) greater than 52.1 µg/mL.

As for `CCOC(=O)Cc1csc(NC(=O)Nc2ccc(F)cc2)n1`, the solubility (kinetic) is 4.4 µg/mL (≈ 13.6 µM).

For `CCCCNC(=S)N1CCN(c2ccccc2Cl)CC1`, the kinetic solubility was determined as 13.1 µg/mL (≈ 42 µM).

For the compound `O=S(=O)(NCc1ccccc1)c1ccc2ccccc2c1`, the kinetic solubility stood at 1.1 µg/mL (≈ 3.7 µM).

`CS(=O)(=O)N(CC(=O)N1CCCC1)c1ccccc1Br`: the kinetic solubility was greater than 54.2 µg/mL.

`COc1ccc(NC(=O)CN(C)C(=O)Cc2ccc3c(c2)CCC3)cc1` yielded a kinetic solubility of 12.2 µg/mL (≈ 34.6 µM).

As to `C=Cn1cc[n+](CC(=O)c2ccc(OC)cc2)c1.[Br-]`, the kinetic solubility came to 45.2 µg/mL.

For `CCCOCCc1nnc(N)s1`, the solubility (kinetic) was greater than 28.1 µg/mL.

Compound `CN1CCN(c2nc3c(c(=O)[nH]c(=O)n3C)n2Cc2ccccc2)CC1` displayed a kinetic solubility of 52.7 µg/mL (≈ 149 µM).

On to `O=C(NN=C1CCCC1)c1ccc(Cl)cc1`, for which the solubility (kinetic) is greater than 35.5 µg/mL.

Regarding `Nc1c(Cl)ncnc1NCC(O)CO` (stereo unspecified), the kinetic solubility is greater than 32.8 µg/mL.

For the compound `COc1ccc2oc(=O)c(C(=O)NCc3ccc(F)cc3)cc2c1`, the kinetic solubility was found to be 0.8 µg/mL (≈ 2.44 µM).

`CN1C(=O)c2ccccc2N(C)C1c1ccc(F)cc1` (stereo unspecified) registered a solubility (kinetic) of 30.7 µg/mL (≈ 114 µM).

Compound `N#Cc1cccc(NC(=O)CCc2ccc(S(=O)(=O)N3CCOCC3)cc2)c1` returned a solubility (kinetic) of 48 µg/mL (≈ 120 µM).

`CC(=O)NC1C(=O)N(Cc2ccccc2)c2ccc(Br)cc21` (stereo unspecified) gave a kinetic solubility of 18 µg/mL (≈ 50.1 µM).

`O=C(Nc1ccc2ccccc2c1)c1ccc(Cl)cc1`: the kinetic solubility was less than 0.6 µg/mL.

The compound `CCN(CC(=O)Nc1ccc2c(c1)OCCO2)S(=O)(=O)c1ccc(F)cc1` showed a solubility (kinetic) greater than 59.2 µg/mL.

Consider `O=C(O)COc1ccccc1/C=N/NC(=O)c1ccc(F)cc1`, for which the solubility (kinetic) was greater than 47.4 µg/mL.

With `S=c1nccc(-c2ccc(Cl)cc2)[nH]1`, the solubility (kinetic) worked out at 26.7 µg/mL (≈ 120 µM).

Regarding `CCN1C(=O)C(=O)N(CC(=O)Nc2cccc(C(F)(F)F)c2)C1=O`, the kinetic solubility is greater than 51.5 µg/mL.

`O=[N+]([O-])c1cccnc1Sc1ccccc1Cl` returned a solubility (kinetic) of 1.7 µg/mL (≈ 6.37 µM).

`CC1CCN(c2nc(N(C)c3ccccc3)nc(N)c2[N+](=O)[O-])CC1` had a solubility (kinetic) of 4.6 µg/mL (≈ 13.4 µM).

These data come from PubChem BioAssay AID1996.
